In patent publication US20140343000A1 (priority 2011, published 2014):

The compounds below were run on recombinant NL4-3 virus (Renilla luciferase in nef, Gag P373S; NLRluc) in MT-2 cells (assay: whole plant or invertebrate). Conditions: Renilla, NL43, luciferase activity in cells infected for 4-5 days with NLRluc recombinants, serial dilutions of inhibitor; class symbols (key in Table 1); read-out: EC50.
Assay type: cell-based, HIV
Outline: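 First, reporter virus was generated in 293T cells and titered on MT-2 cells. Next, MT-2 cells were infected in the presence of serial compound dilutions for 4-5 days. Finally, cells were lysed and luciferase activity was measured to quantify inhibition.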

Compound	EC50 [nM]
C=C(C)[C@@H]1CC[C@]2(NCCN3CCN(C(=O)CCC)CC3)CC[C@]3(C)[C@H](CC[C@@H]4[C@@]5(C)CC=C(c6ccc(C(=O)O)cc6)C(C)(C)[C@@H]5CC[C@]43C)[C@@H]12 [Example B61, 4-((1R,3aS,5aR,5bR,7aR,11aS,11bR,13aR,13bR)-3a-((2-(4-butyrylpiperazin-1-yl)ethyl)amino)-5a,5b,8,8,11a-pentamethyl-1-(prop-1-en-2-yl)-2,3,3a,4,5,5a,5b,6,7,7a,8,11,11a,11b,12,13,13a,13b-octadecahydro-1H-cyclopenta[a]chrysen-9-yl)benzoic acid]	< 100
C=C(C)[C@@H]1CC[C@]2(NCCN3CCN(C(=O)C4CC4)CC3)CC[C@]3(C)[C@H](CC[C@@H]4[C@@]5(C)CC=C(c6ccc(C(=O)O)cc6)C(C)(C)[C@@H]5CC[C@]43C)[C@@H]12 [Example B62, 4-((1R,3aS,5aR,5bR,7aR,11aS,11bR,13aR,13bR)-3a-((2-(4-(cyclopropanecarbonyl)piperazin-1-yl)ethyl)amino)-5a,5b,8,8,11a-pentamethyl-1-(prop-1-en-2-yl)-2,3,3a,4,5,5a,5b,6,7,7a,8,11,11a,11b,12,13,13a,13b-octadecahydro-1H-cyclopenta[a]chrysen-9-yl)benzoic acid]	< 100
C=C(C)[C@@H]1CC[C@]2(NCCN3CCN(C(=O)C4(C)CC4)CC3)CC[C@]3(C)[C@H](CC[C@@H]4[C@@]5(C)CC=C(c6ccc(C(=O)O)cc6)C(C)(C)[C@@H]5CC[C@]43C)[C@@H]12 [Example B63, 4-((1R,3aS,5aR,5bR,7aR,11aS,11bR,13aR,13bR)-5a,5b,8,8,11a-pentamethyl-3a-((2-(4-(1-methylcyclopropanecarbonyl)piperazin-1-yl)ethyl)amino)-1-(prop-1-en-2-yl)-2,3,3a,4,5,5a,5b,6,7,7a,8,11,11a,11b,12,13,13a,13b-octadecahydro-1H-cyclopenta[a]chrysen-9-yl)benzoic acid]	< 100
C=C(C)[C@@H]1CC[C@]2(NCCN3CCN(C(=O)C(C)C)CC3)CC[C@]3(C)[C@H](CC[C@@H]4[C@@]5(C)CC=C(c6ccc(C(=O)O)cc6)C(C)(C)[C@@H]5CC[C@]43C)[C@@H]12 [Example B64, 4-((1R,3aS,5aR,5bR,7aR,11aS,11bR,13aR,13bR)-3a-((2-(4-isobutyrylpiperazin-1-yl)ethyl)amino)-5a,5b,8,8,11a-pentamethyl-1-(prop-1-en-2-yl)-2,3,3a,4,5,5a,5b,6,7,7a,8,11,11a,11b,12,13,13a,13b-octadecahydro-1H-cyclopenta[a]chrysen-9-yl)benzoic acid]	< 100
